In ChEMBL document CHEMBL4834420, “Projected Dose Optimization of Amino- and Hydroxypyrrolidine Purine PI3Kδ Immunomodulators” (J Med Chem, 2021):

Key:
[1] = Plasma clearance in Wistar Han rat at 0.5 mg/kg, iv or 1 mg/kg, po; type: ADME, organism-based
[2] = target: PI3-kinase p110-delta/p85-alpha (Homo sapiens, UniProt O00329); experiment: Inhibition of N-terminal His6-tagged recombinant full length human p110delta/untagged recombinant full length human p85alpha expressed in baculovirus infected Sf21 insect cells using PIP2 as substrate preincubated for 15 mins followed by substrate addition and measured after 1 hr by HTRF assay
Chain of PI3-kinase p110-delta/p85-alpha (P27986 whole entry, one chain of several): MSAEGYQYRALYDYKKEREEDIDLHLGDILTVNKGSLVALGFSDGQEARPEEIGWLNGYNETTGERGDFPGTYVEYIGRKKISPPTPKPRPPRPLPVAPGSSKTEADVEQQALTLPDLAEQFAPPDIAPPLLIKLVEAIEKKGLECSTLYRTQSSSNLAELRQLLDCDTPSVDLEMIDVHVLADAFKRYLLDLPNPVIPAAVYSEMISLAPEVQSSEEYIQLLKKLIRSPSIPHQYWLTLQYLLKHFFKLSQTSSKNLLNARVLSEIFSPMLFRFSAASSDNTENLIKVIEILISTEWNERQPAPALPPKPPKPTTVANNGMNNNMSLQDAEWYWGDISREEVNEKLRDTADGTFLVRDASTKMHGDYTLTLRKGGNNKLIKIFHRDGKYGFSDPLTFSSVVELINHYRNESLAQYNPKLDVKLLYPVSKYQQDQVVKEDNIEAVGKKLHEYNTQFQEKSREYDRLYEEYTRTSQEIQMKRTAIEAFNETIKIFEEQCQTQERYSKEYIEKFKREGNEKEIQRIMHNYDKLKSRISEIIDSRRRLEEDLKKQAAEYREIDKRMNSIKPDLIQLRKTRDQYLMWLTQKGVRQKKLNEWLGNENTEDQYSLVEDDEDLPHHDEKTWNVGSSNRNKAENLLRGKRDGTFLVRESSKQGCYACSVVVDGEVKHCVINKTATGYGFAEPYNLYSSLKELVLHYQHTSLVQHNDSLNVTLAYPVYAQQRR

[3] = Inhibition of adenosine transporter in human HeLa cells assessed as reduction in [3H]adenosine uptake preincubated for 30 mins followed by [3H]adenosine addition and measured after 60 mins; type: cell-based
[4] = Half-life in Beagle dog; type: ADME, Canis lupus familiaris; settings: in vivo
[5] = Volume of distribution in Beagle dog; type: ADME, Canis lupus familiaris; settings: in vivo
[6] = Unbound volume of distribution in Wistar Han rat; type: ADME; settings: in vivo
[7] = Oral bioavailability in Wistar Han rat; type: ADME, organism-based; settings: in vivo
[8] = Unbound volume of distribution in Beagle dog; type: ADME, Canis lupus familiaris; settings: in vivo
[9] = Plasma clearance in Beagle dog at 0.05 mg/kg; type: ADME, organism-based, Canis lupus familiaris
[10] = Half-life in Wistar Han rat; type: ADME; settings: in vivo
[11] = Volume of distribution in Wistar Han rat; type: ADME; settings: in vivo
[12] = Intrinsic clearance in Wistar Han rat at 0.5 mg/kg, iv or 1 mg/kg, po; type: ADME, organism-based; settings: in vivo
[13] = Intrinsic clearance in Beagle dog at 0.05 mg/kg; type: ADME, organism-based, Canis lupus familiaris; settings: in vivo
[14] = Lipophilicity, log D of the compound by HPLC analysis; type: physicochemical
[15] = target: T1, Phosphatidylinositol 4,5-bisphosphate 3-kinase catalytic subunit delta isoform (Homo sapiens, UniProt O00329); experiment: Inhibition of PI3Kdelta in human Ramos cells assessed as reduction in anti-IgM-antibody-induced phosphorylation of AKT at Ser473 residue preincubated for 20 mins followed by anti-IgM antibody stimulation and measured after 30 mins by alphascreen assay; type: cell-based
T1 sequence (O00329 whole entry): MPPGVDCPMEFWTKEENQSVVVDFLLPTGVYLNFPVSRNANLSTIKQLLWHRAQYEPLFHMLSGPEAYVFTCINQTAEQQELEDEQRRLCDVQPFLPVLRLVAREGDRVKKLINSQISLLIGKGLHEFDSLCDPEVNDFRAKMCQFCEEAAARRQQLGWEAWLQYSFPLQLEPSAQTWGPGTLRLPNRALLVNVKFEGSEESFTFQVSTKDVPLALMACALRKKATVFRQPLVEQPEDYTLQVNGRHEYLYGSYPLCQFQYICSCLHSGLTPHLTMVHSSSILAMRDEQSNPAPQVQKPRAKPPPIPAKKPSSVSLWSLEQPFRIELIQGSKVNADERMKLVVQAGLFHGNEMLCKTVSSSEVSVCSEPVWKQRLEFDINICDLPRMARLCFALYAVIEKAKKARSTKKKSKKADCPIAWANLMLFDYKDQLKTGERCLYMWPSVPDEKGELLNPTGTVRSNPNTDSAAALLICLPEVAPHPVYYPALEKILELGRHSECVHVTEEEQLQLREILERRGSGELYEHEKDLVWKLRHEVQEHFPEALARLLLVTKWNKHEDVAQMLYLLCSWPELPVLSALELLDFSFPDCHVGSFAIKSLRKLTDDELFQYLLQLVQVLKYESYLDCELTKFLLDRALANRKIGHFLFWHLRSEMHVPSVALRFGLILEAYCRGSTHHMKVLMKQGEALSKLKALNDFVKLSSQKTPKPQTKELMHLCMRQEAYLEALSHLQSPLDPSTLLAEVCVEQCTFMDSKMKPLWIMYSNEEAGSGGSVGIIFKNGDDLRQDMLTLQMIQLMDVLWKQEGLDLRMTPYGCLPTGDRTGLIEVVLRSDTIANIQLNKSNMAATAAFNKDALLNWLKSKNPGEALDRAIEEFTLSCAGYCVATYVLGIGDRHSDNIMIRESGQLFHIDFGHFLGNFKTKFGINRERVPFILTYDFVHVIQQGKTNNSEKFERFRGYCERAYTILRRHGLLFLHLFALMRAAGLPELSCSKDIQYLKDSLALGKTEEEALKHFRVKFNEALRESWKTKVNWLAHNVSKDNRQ

[16] = Plasma clearance in Wistar Han rat at 0.05 mg/kg, iv or 1 mg/kg, po; type: ADME, organism-based
[17] = Intrinsic clearance in Wistar Han rat at 0.05 mg/kg, iv or 1 mg/kg, po; type: ADME, organism-based; settings: in vivo
[18] = target: T1, Phosphatidylinositol 4,5-bisphosphate 3-kinase catalytic subunit delta isoform; experiment: Inhibition of PI3Kdelta in human whole blood assessed as reduction in anti-CD79b antibody-induced CD69 expression preincubated for 60 mins followed by anti-CD79b antibody stimulation and measured after 3 hrs by FACS analysis; type: tissue-based
[19] = Apparent permeability in pig LLC-PK1 cells; type: ADME, cell-based, Sus scrofa
[20] = Intrinsic clearance in Beagle dog at 0.25 mg/kg, iv or 0.5 mg/kg, po; type: ADME, organism-based, Canis lupus familiaris; settings: in vivo
[21] = Oral bioavailability in Beagle dog; type: ADME, organism-based, Canis lupus familiaris; settings: in vivo
[22] = Plasma clearance in Beagle dog at 0.25 mg/kg, iv or 0.5 mg/kg, po; type: ADME, organism-based, Canis lupus familiaris

Row | clearance [1] [mL/min/kg] | IC50 [2] [nM] | IC50 [3] [nM] | half-life [4] [h] | Vd [5] [L/kg] | Vdu [6] [L/kg] | bioavailability [7] [%] | Vdu [8] [L/kg] | clearance [9] [mL/min/kg] | half-life [10] [h] | Vd [11] [L/kg] | CL [12] [mL/min/kg] | CL [13] [mL/min/kg] | logD [14] | IC50 [15] [nM] | clearance [16] [mL/min/kg] | CL [17] [mL/min/kg] | SMILES | other results
1 | 4 | 3.3 | 8700 | 1.2 | 1.4 | 2.1 | 75 | 2.3 | 12 | 1.7 | 0.4 | 25 | 32 | 0.9 | 63 | – | – | CCn1c(-c2cnc(C)nc2)nc2c(O[C@H]3CCN(C(=O)N4CC(OC)C4)C3)ncnc21 | –
2 | – | 1.2 | 7700 | 1.1 | 1 | 4 | – | 1.4 | 12 | 0.3 | 0.6 | – | 27 | 1.3 | 14 | 28 | 270 | CCn1c(-c2cnc(C)nc2)nc2c(O[C@H]3CCN(C(=O)C4CCC4)C3)ncnc21 | –
3 | – | 1.6 | > 10000 | – | – | 2.3 | – | – | – | 0.6 | 0.7 | – | – | 0.6 | – | 18 | 74 | CCn1c(-c2cnc(C)nc2)nc2c(N[C@H]3CCN(C(=O)C4CCOC4)C3)ncnc21 (stereo not given in full) | –
4 | – | 3.8 | 9900 | 0.8 | 1.4 | 3 | – | 2.5 | 23 | 1.4 | 0.5 | – | 170 | 1.5 | 32 | 6 | 28 | CCn1c(-c2cnc(C)nc2)nc2c(O[C@H]3CCN(C(=O)C4CC(F)(F)C4)C3)ncnc21 | IC50 [18]: 84 nM
5 | 14 | 13 | > 10000 | 1.9 | 0.8 | 1.5 | 31 | 1.1 | 4.3 | 1.4 | 0.8 | 37 | 7 | 0.8 | 390 | – | – | CCn1c(-c2cnc(C)nc2)nc2c(O[C@H]3CCN(C(=O)C4CCOCC4)C3)ncnc21 | –
6 | 4.7 | 1.7 | 1200 | 3.1 | 1.2 | 8.8 | 36 | 3.9 | 5.6 | 1.2 | 0.4 | 104 | 22 | 2 | 12 | – | – | CCn1c(-c2ccc(C(F)(F)F)nc2)nc2c(N[C@H]3CCN(C(=O)C4CC4)C3)ncnc21 | –
7 | – | – | – | – | – | 6.1 | – | – | – | 0.7 | 0.6 | – | – | 0.6 | 82 | 13 | 150 | CCn1c(-c2cnc(C)nc2)nc2c(N[C@H]3CCN(C(=O)c4cocn4)C3)ncnc21 | –
8 | – | – | > 10000 | 3.9 | 1.9 | 2.4 | – | 2.7 | 6.1 | 1.2 | 1.2 | – | 11 | 0.8 | – | 12 | 31 | CCC(=O)N1CC[C@H](Oc2ncnc3c2nc(-c2cnc(C)nc2)n3CC)C1 | Papp [19]: 21 ×10⁻⁶ cm/s
9 | – | 6 | > 10000 | 3.8 | 0.7 | 0.9 | – | 0.9 | 3 | 1.4 | 0.5 | – | 4.2 | 0.7 | – | 6.2 | 12 | CCn1c(-c2cnc(C)nc2)nc2c(O[C@H]3CCN(C(=O)C4CCOC4)C3)ncnc21 (stereo not given in full) | –
10 | 3.6 | 1.6 | 4100 | 2.6 | 1.1 | 13 | 39 | 2.5 | – | 3.3 | 0.4 | 130 | – | 2.2 | 67 | – | – | CCn1c(-c2ccc(C(F)(F)F)nc2)nc2c(O[C@H]3CCN(C(=O)[C@H]4C[C@@H](OC)C4)C3)ncnc21 | CL [20]: 18 mL/min/kg; bioavailability [21]: 100%; Papp [19]: 35 ×10⁻⁶ cm/s; clearance [22]: 6.2 mL/min/kg; IC50 [18]: 73 nM
11 | 13 | 0.4 | 1200 | 1.3 | 1.3 | 9.2 | 74 | 2.3 | – | 0.6 | 0.5 | 320 | – | 1.2 | 4 | – | – | CCn1c(-c2cnc(C)nc2)nc2c(N[C@H]3CCN(C(=O)C4CCC4)C3)ncnc21 | CL [20]: 30 mL/min/kg; bioavailability [21]: 84%; Papp [19]: 32 ×10⁻⁶ cm/s; clearance [22]: 11 mL/min/kg; IC50 [18]: 14 nM
12 | – | 2.2 | 3800 | – | – | 18 | – | – | – | 0.4 | 0.9 | – | – | 1.5 | 13 | 26 | 760 | CCn1c(-c2cnc(C)nc2)nc2c(N[C@H]3CCN(C(=O)C4CC(F)(F)C4)C3)ncnc21 | –
13 | 21 | 1.9 | > 10000 | 2.7 | 1.5 | 3.6 | 61 | 1.9 | 5.5 | 1.5 | 1 | 100 | 9 | 0.7 | 42 | – | – | CCC(=O)N1CC[C@H](Nc2ncnc3c2nc(-c2cnc(C)nc2)n3CC)C1 | Papp [19]: 21 ×10⁻⁶ cm/s
14 | – | 5.1 | 5600 | – | – | 8.3 | – | – | – | 0.7 | 0.7 | – | – | 2.3 | 49 | 15 | 240 | CCn1c(-c2ccc(C(F)(F)F)nc2)nc2c(O[C@H]3CCN(C(=O)C4CC4)C3)ncnc21 | –
